We go through 31 compounds from patent US20240059691A1 (KALVISTA PHARMACEUTICALS LIMITED, priority 2020, published 2024).

The target in test [1] is Human Factor XIIa (Homo sapiens (Human), UniProt P00748). The test can be described thus: Determination of FXIIa inhibition (fluorogenic substrate H-DPro-Phe-Arg-AFC, IC50 assay). Format: biochemical. The note with it: substrate H-DPro-Phe-Arg-AFC at Km, 25° C.; class scale A-G. The procedure, abridged: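 Human FXIIa incubated at 25° C with fluorogenic substrate H-DPro-Phe-Arg-AFC at its Km concentration and varying compound concentrations. Fluorescence release monitored over 5 min at 25° C; linear rate expressed as % of uninhibited activity to derive IC50.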

Test [2] addresses Plasma Kallikrein (Homo sapiens (Human), UniProt P03952). The test is described as follows: Determination of related protease inhibition: Plasma Kallikrein (fluorogenic substrate at Km). Format: biochemical. As to conditions: 25° C., read-out: IC50 (human PKal). Summed up:
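The enzyme from human source is assayed in the presence of various test compound concentrations, with substrate held at its Km. Accumulating fluorescence is tracked for 5 min at 25 °C, and the concentration halving uninhibited activity is reported as IC50.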

Sequence of Human Factor XIIa (P00748 373-615): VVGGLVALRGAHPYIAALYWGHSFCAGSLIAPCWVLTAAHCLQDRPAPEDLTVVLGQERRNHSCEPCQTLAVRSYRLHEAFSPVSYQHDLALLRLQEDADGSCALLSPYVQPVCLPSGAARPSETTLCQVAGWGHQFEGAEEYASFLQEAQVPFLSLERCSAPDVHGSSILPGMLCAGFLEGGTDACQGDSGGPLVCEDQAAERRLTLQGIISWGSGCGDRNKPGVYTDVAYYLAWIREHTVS
Sequence of Plasma Kallikrein (P03952 391-638): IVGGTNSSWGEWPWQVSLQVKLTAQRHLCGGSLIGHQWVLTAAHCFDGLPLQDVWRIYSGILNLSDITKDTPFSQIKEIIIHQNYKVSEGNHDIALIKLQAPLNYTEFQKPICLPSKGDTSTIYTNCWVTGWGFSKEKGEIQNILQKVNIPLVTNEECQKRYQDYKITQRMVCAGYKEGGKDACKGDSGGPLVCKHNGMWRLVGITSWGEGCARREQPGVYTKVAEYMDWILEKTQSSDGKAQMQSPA
Sequence of Plasma Kallikrein (P03952 20-390 partner): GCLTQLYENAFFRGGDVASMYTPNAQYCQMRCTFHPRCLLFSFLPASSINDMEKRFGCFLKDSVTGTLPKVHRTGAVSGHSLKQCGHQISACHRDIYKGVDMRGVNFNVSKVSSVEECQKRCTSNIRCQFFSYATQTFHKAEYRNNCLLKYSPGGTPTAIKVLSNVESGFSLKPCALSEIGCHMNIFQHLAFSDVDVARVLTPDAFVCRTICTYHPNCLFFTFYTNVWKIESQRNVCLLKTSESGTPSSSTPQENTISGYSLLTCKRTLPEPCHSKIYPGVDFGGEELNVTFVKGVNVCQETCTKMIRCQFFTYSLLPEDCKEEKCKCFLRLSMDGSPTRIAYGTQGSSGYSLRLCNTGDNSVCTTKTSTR

A word on the IC50: it is the concentration that inhibits the measured activity by half. For `Nc1nccc2c(NCc3ccc(N4CC5(CC(O)c6nccn65)C4)cc3)cccc12` (centres unmarked) [Example 2253, 1-(4-(((1-aminoisoquinolin-5-yl)amino)methyl)phenyl)-6′,7′-dihydrospiro[azetidine-3,5′-pyrrolo[1,2-a]imidazol]-7′-ol], the half-maximal inhibitory concentration (IC50) in test [1] is 3 to 10 µM; in test [2] it was above 40 µM.
Consider `CN1CCC(COc2cc(CNc3cnc4c(N)nccc4c3)ccn2)CC1` [Example 4293, 3-N-({2-[(1-methylpiperidin-4-yl)methoxy]pyridin-4-yl}methyl)-1,7-naphthyridine-3,8-diamine], for which the half-maximal inhibitory concentration (IC50) in test [1] was 0.3 to 1 µM; in test [2] it was above 40 µM.
Regarding `CC(C)N1CC2CCC(C1)C2COc1cc(CNc2cccc3c(N)nccc23)ccn1` (centres unmarked) [Example 4297, N5-((2-((3-isopropyl-3-azabicyclo[3.2.1]octan-8-yl)methoxy)pyridin-4-yl)methyl)isoquinoline-1,5-diamine], the results for the concentration for half-maximal inhibition (IC50) in test [1] and in test [2] were 0.1 to 0.3 µM and above 4 µM, respectively.
On to `Nc1ncc(Cl)c2cc(NCc3ccnc(OCC4CCn5ccnc5C4)c3)ccc12` (centres unmarked) [Example 4300, 4-Chloro-N6-[[2-(5,6,7,8-tetrahydroimidazo[1,2-a]pyridin-7-ylmethoxy)-4-pyridyl]methyl]isoquinoline-1,6-diamine], for which the IC50 in test [1] was 0.1 to 0.3 µM; in test [2], 10 to 40 µM.
`Nc1nccc2c(NCc3ccnc(NCCC(=O)N4CCCC4)c3)cccc12` [Example 4302, 3-[(4-{[(1-aminoisoquinolin-5-yl)amino]methyl}pyridin-2-yl)amino]-1-(pyrrolidin-1-yl)propan-1-one]: the IC50 in test [1] was 1 to 3 µM; in test [2], 10 to 40 µM.
On the same counts, the results for `Nc1ncc(Cl)c2cc(NCc3ccnc(NCC4CCn5ccnc5C4)c3)ccc12` (centres unmarked) [Example 4303, 4-chloro-6-N-{[2-({5H,6H,7H,8H-imidazo[1,2-a]pyridin-7-ylmethyl}amino)pyridin-4-yl]methyl}isoquinoline-1,6-diamine] are 0.1 to 0.3 µM and above 40 µM.
Turning to `Nc1nccc2c(NCc3ccnc(OC4CCn5ccnc5C4)c3)cccc12` (centres unmarked) [Example 4306, 5-N-[(2-{5H,6H,7H,8H-imidazo[1,2-a]pyridin-7-yloxy}pyridin-4-yl)methyl]isoquinoline-1,5-diamine], the IC50 in test [1] was 1 to 3 µM; in test [2], 10 to 40 µM.
For the compound `Nc1ncc(F)c2cc(NCc3ccnc(OCC4CCn5ccnc5C4)c3)ccc12` (centres unmarked) [Example 4307, 4-fluoro-6-N-[(2-{5H,6H,7H,8H-imidazo[1,2-a]pyridin-7-ylmethoxy}pyridin-4-yl)methyl]isoquinoline-1,6-diamine], the IC50 was 0.3 to 1 µM in test [1] and above 4 µM in test [2].
In the case of `Cc1cn2c(n1)CC(COc1cc(CNc3ccc4c(N)ncc(Cl)c4c3)ccn1)CC2` (centres unmarked) [Example 4309, 4-chloro-6-N-{[2-({2-methyl-5H,6H,7H,8H-imidazo[1,2-a]pyridin-7-yl}methoxy)pyridin-4-yl]methyl}isoquinoline-1,6-diamine], the half-inhibitory concentration (IC50) in test [1] is 0.1 to 0.3 µM; in test [2] it was above 4 µM.
For the compound `Cc1cnc2n1CCC(COc1cc(CNc3cccc4c(N)nccc34)ccn1)C2` (centres unmarked) [Example 4320, N5-[[2-[(3-methyl-5,6,7,8-tetrahydroimidazo[1,2-a]pyridin-7-yl)methoxy]-4-pyridyl]methyl]isoquinoline-1,5-diamine], the IC50 in test [1] was 0.1 to 0.3 µM; in test [2] it was 3 to 10 µM.
As to `CN1CCN(c2cc(CNc3cccc4c(N)nccc34)ccn2)CC1` [Example 4426, 5-N-{[2-(4-methylpiperazin-1-yl)pyridin-4-yl]methyl}isoquinoline-1,5-diamine], the IC50 in test [1] is 10 to 40 µM; in test [2], above 40 µM.
For `CN1CCN(c2cc(CNc3ccc4c(N)ncc(Cl)c4c3)ccn2)CC1` [Example 4427, 4-chloro-6-N-{[2-(4-methylpiperazin-1-yl)pyridin-4-yl]methyl}isoquinoline-1,6-diamine], the IC50 in test [1] is 10 to 40 µM; in test [2], above 40 µM.
Consider `Nc1ncc(Cl)c2cc(NCc3ccnc(NCCC(=O)N4CCCC4)c3)ccc12` [Example 4428, 3-[(4-{[(1-amino-4-chloroisoquinolin-6-yl)amino]methyl}pyridin-2-yl)amino]-1-(pyrrolidin-1-yl)propan-1-one], for which the IC50 in test [1] is 1 to 3 µM; in test [2], above 4 µM.
In the case of `Nc1nccc2cc(NCc3ccnc(OCC4CCn5ccnc5C4)c3)ncc12` (centres unmarked) [Example 4429, N6-[[2-(5,6,7,8-tetrahydroimidazo[1,2-a]pyridin-7-ylmethoxy)-4-pyridyl]methyl]-2,7-naphthyridine-1,6-diamine], the IC50 fell in the range of 1 to 3 µM in test [1] and 3 to 10 µM in test [2].
Take `Nc1ncc(Cl)c2cc(NCc3ccnc(OC4CCn5ccnc5C4)c3)ccc12` (centres unmarked) [Example 4432, 4-chloro-6-N-[(2-{5H,6H,7H,8H-imidazo[1,2-a]pyridin-7-yloxy}pyridin-4-yl)methyl]isoquinoline-1,6-diamine]: the figures for the IC50 in test [1] and in test [2] were 1 to 3 µM and above 40 µM, respectively.
Take `Nc1ncc(Cl)c2cc(NCc3ccnc(OCc4ccn5ccnc5c4)c3)ccc12` [Example 4433, 4-chloro-6-N-[(2-{imidazo[1,2-a]pyridin-7-ylmethoxy}pyridin-4-yl)methyl]isoquinoline-1,6-diamine]: the 50% inhibitory concentration (IC50) in test [1] is 1 to 3 µM; in test [2], above 40 µM.
Take `Cc1n[nH]c2c1CCC2Nc1cc(CNc2ccc3c(N)ncc(Cl)c3c2)ccn1` (centres unmarked) [Example 4440, 4-chloro-N6-((2-((3-methyl-1,4,5,6-tetrahydrocyclopenta[c]pyrazol-6-yl)amino)pyridin-4-yl)methyl)isoquinoline-1,6-diamine]: the values for the IC50 in test [1] and in test [2] were 10 to 40 µM and above 40 µM, respectively.
Turning to `Nc1ncc(Cl)c2cc(NCc3ccnc(OCC4CCCn5ccnc54)c3)ccc12` (centres unmarked) [Example 4443, 4-chloro-N6-((2-((5,6,7,8-tetrahydroimidazo[1,2-a]pyridin-8-yl)methoxy)pyridin-4-yl)methyl)isoquinoline-1,6-diamine], the IC50 in test [1] is 0.1 to 0.3 µM; in test [2] it was above 40 µM.
Consider `Nc1ncc(Cl)c2cc(NCc3ccnc(OCC4CCn5c(CO)cnc5C4)c3)ccc12` (centres unmarked) [Example 4448, (7-(((4-(((1-amino-4-chloroisoquinolin-6-yl)amino)methyl)pyridin-2-yl)oxy)methyl)-5,6,7,8-tetrahydroimidazo[1,2-a]pyridin-3-yl)methanol], for which the IC50 is 0.3 to 1 µM in test [1] and above 40 µM in test [2].
Turning to `Nc1ncc(Cl)c2cc(NCc3ccnc(OCC4CCn5cc(CO)nc5C4)c3)ccc12` (centres unmarked) [Example 4449, (7-(((4-(((1-amino-4-chloroisoquinolin-6-yl)amino)methyl)pyridin-2-yl)oxy)methyl)-5,6,7,8-tetrahydroimidazo[1,2-a]pyridin-2-yl)methanol], the half-maximal inhibitory concentration (IC50) is 0.3 to 1 µM in test [1] and above 40 µM in test [2].
Take `Nc1nccc2c(CCc3ccnc(OCC4CCn5ccnc5C4)c3)cccc12` (centres unmarked) [Example 4452, 5-(2-(2-((5,6,7,8-tetrahydroimidazo[1,2-a]pyridin-7-yl)methoxy)pyridin-4-yl)ethyl)isoquinolin-1-amine]: the 50% inhibitory concentration (IC50) was 0.3 to 1 µM in test [1] and above 40 µM in test [2].
The corresponding values for `CN1CCC(COc2cc(CNc3ccc4ncc(=O)[nH]c4c3)ccn2)CC1` [Example 4456] are 40 to 100 µM and 10 to 40 µM.
Take `CN1CCC(COc2cc(CNc3ccnc4[nH]ccc34)ccn2)CC1` [Example 4459, N-((2-((1-methylpiperidin-4-yl)methoxy)pyridin-4-yl)methyl)-1H-pyrrolo[2,3-b]pyridin-4-amine]: the IC50 in test [1] was 10 to 40 µM; in test [2] it was above 100 µM.
As to `CN1CCC(COc2cc(CNc3cnc4[nH]cc(C#N)c4c3)ccn2)CC1` [Example 4460], the values for the IC50 in test [1] and in test [2] were 40 to 100 µM and above 100 µM, respectively.
`CN1CCC(COc2cc(CNc3cccc4c(N)ncc(F)c34)ccn2)CC1` [Example 4461, 4-fluoro-N5-((2-((1-methylpiperidin-4-yl)methoxy)pyridin-4-yl)methyl)isoquinoline-1,5-diamine]: the 50% inhibitory concentration (IC50) in test [1] is 3 to 10 µM; in test [2] it was above 40 µM.
In the case of `COc1cc(NCc2ccnc(OCC3CCN(C)CC3)c2)cc2ccncc12` [Example 4462, 8-methoxy-N-((2-((1-methylpiperidin-4-yl)methoxy)pyridin-4-yl)methyl)isoquinolin-6-amine], the IC50 in test [1] is 3 to 10 µM; in test [2] it was above 100 µM.
As to `CNC(=O)c1cc(NCc2ccnc(OCC3CCN(C)CC3)c2)cc2ccncc12` [Example 4463], the IC50 in test [1] was 40 to 100 µM; in test [2] it was above 100 µM.
The corresponding values for `Cc1cc2c(NCc3ccnc(OCC4CCN(C)CC4)c3)ccnc2[nH]1` [Example 4465, 2-methyl-N-((2-((1-methylpiperidin-4-yl)methoxy)pyridin-4-yl)methyl)-1H-pyrrolo[2,3-b]pyridin-4-amine] are 1 to 3 µM and above 100 µM.
As for `CN1CCC(COc2cc(CNc3ccc4cnccc4c3F)ccn2)CC1` [Example 4466, 5-fluoro-N-((2-((1-methylpiperidin-4-yl)methoxy)pyridin-4-yl)methyl)isoquinolin-6-amine], the IC50 in test [1] is 3 to 10 µM; in test [2], above 100 µM.
Turning to `Cn1c(COc2cc(CNc3cccc4c(N)nccc34)ccn2)nnc1C1CC1` [Example 4468, N5-((2-((5-cyclopropyl-4-methyl-4H-1,2,4-triazol-3-yl)methoxy)pyridin-4-yl)methyl)isoquinoline-1,5-diamine], the figures for the 50% inhibitory concentration (IC50) in test [1] and in test [2] were 1 to 3 µM and above 40 µM, respectively.
On to `CN1CCC(COc2cc(CNc3ccc(F)c4c(N)nccc34)ccn2)CC1` [Example 4469, 8-fluoro-N5-((2-((1-methylpiperidin-4-yl)methoxy)pyridin-4-yl)methyl)isoquinoline-1,5-diamine], for which the half-maximal inhibitory concentration (IC50) in test [1] was 3 to 10 µM; in test [2], above 40 µM.
